From ChEMBL document CHEMBL2010688, “Tri- and tetrasubstituted pyrazole derivates: regioisomerism switches activity from p38MAP kinase to important cancer kinases” (J Med Chem, 2012)
pIC50: −log10 of the molar value. Active and inactive are the calls of the source. The rule behind the calls is not given here.

What follows are molecules tested against Serine/threonine-protein kinase B-raf (Homo sapiens, UniProt P15056, V600E) (assay: Inhibition of BRAF V600E mutant using MEK1-KM as substrate assessed as [33P-gamma]-ATP incorporation after 60 mins by microplate scintillation counting).
Sequence of Serine/threonine-protein kinase B-raf (Homo sapiens, UniProt P15056, V600E) (P15056 2-766 V600E limits assumed): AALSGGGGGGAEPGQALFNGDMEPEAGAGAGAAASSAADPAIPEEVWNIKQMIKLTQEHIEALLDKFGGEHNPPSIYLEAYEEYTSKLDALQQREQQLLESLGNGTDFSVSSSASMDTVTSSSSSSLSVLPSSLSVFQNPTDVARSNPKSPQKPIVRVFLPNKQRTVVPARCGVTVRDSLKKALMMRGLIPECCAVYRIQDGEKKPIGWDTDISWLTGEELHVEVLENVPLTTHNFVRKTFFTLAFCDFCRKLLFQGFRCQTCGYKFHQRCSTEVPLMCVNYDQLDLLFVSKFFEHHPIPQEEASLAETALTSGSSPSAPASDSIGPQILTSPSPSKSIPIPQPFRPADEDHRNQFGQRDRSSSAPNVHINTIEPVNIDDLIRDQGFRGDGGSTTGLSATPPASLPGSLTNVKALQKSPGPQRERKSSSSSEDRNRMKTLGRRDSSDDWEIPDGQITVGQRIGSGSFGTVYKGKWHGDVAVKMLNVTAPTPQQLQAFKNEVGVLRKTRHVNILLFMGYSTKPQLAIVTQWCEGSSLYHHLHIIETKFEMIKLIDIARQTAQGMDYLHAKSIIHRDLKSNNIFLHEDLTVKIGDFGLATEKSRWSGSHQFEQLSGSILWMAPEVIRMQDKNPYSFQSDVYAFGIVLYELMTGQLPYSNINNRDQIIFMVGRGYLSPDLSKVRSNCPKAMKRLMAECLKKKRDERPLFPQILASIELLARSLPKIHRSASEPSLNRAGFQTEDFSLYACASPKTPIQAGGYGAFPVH
In the case of `Nc1cc(-c2ccncc2)nn1-c1c(Cl)cc(Cl)cc1Cl`, the pIC50 was under 4.00.
With `Nc1c(C(=O)O)c(-c2ccncc2)nn1-c1c(Cl)cc(Cl)cc1Cl` the pIC50 was under 4.00.
Work on `Nc1c(-c2ccc(F)cc2)c(-c2ccncc2)nn1-c1ccc(C(F)(F)F)cc1` yielded a pIC50 of 5.82.
In the case of `Nc1c(-c2ccc(F)cc2)c(-c2ccncc2)nn1-c1ccc(Cl)cc1`, the pIC50 was 6.10.
For `Nc1c(-c2ccc(F)cc2)c(-c2ccncc2)nn1-c1ccc([N+](=O)[O-])cc1`, the pIC50 was 5.85.
`Nc1c(-c2ccc(F)cc2)c(-c2ccncc2)nn1-c1c(Cl)cc(Cl)cc1Cl` showed a pIC50 of 6.23.
`Fc1ccc(-c2cn(-c3c(Cl)cc(Cl)cc3Cl)nc2-c2ccncc2)cc1` gave a pIC50 of 5.60.
`Cc1ccc(-n2nc(-c3ccncc3)c(-c3ccc(F)cc3)c2N)cc1` showed a pIC50 of 6.05.
`CCOC(=O)c1c(-c2ccncc2)nn(-c2c(Cl)cc(Cl)cc2Cl)c1N` showed a pIC50 of under 4.00.
`NC(=O)c1c(-c2ccncc2)nn(-c2c(Cl)cc(Cl)cc2Cl)c1N` gave a pIC50 of under 4.00.

What follows are molecules tested against Vascular endothelial growth factor receptor 2 (Homo sapiens, UniProt P35968) (assay: Inhibition of VEGFR2 using poly(Glu,Tyr) as substrate assessed as [33P-gamma]-ATP incorporation after 60 mins by microplate scintillation counting).
Sequence of Vascular endothelial growth factor receptor 2 (P35968 whole entry): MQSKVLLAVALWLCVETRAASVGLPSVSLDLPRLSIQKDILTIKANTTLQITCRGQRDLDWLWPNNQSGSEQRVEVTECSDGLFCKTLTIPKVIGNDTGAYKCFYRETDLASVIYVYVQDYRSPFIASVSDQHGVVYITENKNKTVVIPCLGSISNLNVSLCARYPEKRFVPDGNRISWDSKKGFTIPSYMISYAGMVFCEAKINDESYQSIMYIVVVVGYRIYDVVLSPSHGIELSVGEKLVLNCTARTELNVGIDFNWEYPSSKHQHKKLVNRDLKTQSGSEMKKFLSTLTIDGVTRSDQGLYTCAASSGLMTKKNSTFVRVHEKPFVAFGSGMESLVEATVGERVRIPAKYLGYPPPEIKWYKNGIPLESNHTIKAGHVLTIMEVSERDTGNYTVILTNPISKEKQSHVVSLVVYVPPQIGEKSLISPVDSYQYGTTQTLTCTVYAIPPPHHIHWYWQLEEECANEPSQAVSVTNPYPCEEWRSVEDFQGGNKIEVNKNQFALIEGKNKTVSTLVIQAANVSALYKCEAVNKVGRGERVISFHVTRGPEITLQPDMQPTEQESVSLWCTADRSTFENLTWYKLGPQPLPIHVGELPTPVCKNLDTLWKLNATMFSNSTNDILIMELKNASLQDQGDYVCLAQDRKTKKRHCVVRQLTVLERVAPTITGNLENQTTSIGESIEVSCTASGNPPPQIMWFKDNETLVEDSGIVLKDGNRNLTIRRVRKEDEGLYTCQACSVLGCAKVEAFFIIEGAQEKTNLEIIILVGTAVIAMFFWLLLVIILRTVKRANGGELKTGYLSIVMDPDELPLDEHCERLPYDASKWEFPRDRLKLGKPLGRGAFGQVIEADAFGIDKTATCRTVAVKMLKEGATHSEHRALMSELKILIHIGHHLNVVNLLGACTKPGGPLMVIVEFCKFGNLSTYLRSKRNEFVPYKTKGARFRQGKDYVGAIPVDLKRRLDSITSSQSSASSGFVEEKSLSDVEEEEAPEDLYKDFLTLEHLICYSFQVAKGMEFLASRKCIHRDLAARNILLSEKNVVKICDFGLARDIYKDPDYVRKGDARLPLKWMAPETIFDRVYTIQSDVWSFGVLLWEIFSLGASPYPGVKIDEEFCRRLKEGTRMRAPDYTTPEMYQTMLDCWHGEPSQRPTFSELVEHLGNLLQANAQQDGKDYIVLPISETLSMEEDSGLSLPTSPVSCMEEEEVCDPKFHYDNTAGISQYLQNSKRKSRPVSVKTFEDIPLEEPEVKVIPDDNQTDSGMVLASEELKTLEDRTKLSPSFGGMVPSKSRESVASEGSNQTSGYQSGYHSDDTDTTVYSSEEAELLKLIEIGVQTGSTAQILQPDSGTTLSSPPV
`Nc1c(-c2ccc(F)cc2)c(-c2ccncc2)nn1-c1ccc(C(F)(F)F)cc1` showed a pIC50 of 5.62.
`Nc1c(-c2ccc(F)cc2)c(-c2ccncc2)nn1-c1ccc(Cl)cc1` gave a pIC50 of 5.92.
`Nc1c(-c2ccc(F)cc2)c(-c2ccncc2)nn1-c1ccc([N+](=O)[O-])cc1` gave a pIC50 of 5.85.
With `Nc1c(-c2ccc(F)cc2)c(-c2ccncc2)nn1-c1c(Cl)cc(Cl)cc1Cl` the pIC50 was 7.47.
Work on `Fc1ccc(-c2cn(-c3c(Cl)cc(Cl)cc3Cl)nc2-c2ccncc2)cc1` yielded a pIC50 of 6.68.
For `Cc1ccc(-n2nc(-c3ccncc3)c(-c3ccc(F)cc3)c2N)cc1`, the pIC50 was 5.59.
For `CCOC(=O)c1c(-c2ccncc2)nn(-c2c(Cl)cc(Cl)cc2Cl)c1N`, the pIC50 was under 4.00.

What follows are molecules tested against Serine/threonine-protein kinase B-raf (Homo sapiens, UniProt P15056) (assay: Inhibition of wild type B-Raf using MEK1-KM as substrate assessed as [33P-gamma]-ATP incorporation after 60 mins by microplate scintillation counting).
Sequence of Serine/threonine-protein kinase B-raf (Homo sapiens, UniProt P15056) (P15056 whole entry): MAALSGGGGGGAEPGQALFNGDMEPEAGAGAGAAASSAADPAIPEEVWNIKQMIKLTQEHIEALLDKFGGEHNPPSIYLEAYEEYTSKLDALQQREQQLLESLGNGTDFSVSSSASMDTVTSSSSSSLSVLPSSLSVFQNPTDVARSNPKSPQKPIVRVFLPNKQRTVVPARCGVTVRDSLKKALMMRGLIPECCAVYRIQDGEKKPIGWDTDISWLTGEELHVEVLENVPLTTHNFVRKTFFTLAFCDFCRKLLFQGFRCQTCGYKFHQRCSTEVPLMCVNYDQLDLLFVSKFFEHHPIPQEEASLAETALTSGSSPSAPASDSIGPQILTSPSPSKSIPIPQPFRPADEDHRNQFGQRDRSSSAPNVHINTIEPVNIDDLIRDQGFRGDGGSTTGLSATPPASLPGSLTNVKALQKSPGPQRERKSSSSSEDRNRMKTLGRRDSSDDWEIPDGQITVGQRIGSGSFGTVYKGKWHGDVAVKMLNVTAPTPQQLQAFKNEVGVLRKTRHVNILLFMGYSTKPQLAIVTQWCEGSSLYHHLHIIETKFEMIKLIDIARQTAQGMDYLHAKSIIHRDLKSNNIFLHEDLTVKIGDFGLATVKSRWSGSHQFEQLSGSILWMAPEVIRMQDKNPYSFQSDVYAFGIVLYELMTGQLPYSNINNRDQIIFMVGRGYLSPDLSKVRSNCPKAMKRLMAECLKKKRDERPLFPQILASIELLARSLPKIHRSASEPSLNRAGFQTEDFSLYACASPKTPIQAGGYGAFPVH
In the case of `Nc1c(-c2ccc(F)cc2)c(-c2ccncc2)nn1-c1c(Cl)cc(Cl)cc1Cl`, the pIC50 was 6.57.

Each molecule was assayed against Proto-oncogene tyrosine-protein kinase Src (Homo sapiens, UniProt P12931) (assay: Inhibition of SRC using poly(Glu,Tyr) as substrate assessed as [33P-gamma]-ATP incorporation after 60 mins by microplate scintillation counting).
Sequence of Proto-oncogene tyrosine-protein kinase Src (P12931 2-536 limits assumed): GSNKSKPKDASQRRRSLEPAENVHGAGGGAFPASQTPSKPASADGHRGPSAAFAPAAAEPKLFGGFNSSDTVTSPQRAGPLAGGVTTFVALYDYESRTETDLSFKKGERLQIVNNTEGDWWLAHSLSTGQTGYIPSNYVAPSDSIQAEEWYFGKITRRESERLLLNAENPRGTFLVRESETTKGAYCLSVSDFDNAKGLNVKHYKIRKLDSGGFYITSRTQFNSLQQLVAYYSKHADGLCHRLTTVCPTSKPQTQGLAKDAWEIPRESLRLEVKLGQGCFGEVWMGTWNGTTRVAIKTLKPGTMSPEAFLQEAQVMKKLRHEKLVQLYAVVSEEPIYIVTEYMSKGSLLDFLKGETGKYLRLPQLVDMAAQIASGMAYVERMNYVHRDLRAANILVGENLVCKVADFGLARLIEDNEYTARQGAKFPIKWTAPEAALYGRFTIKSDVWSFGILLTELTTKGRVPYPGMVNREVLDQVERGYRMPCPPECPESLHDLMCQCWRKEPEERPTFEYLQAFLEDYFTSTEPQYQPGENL
`Nc1cc(-c2ccncc2)nn1-c1c(Cl)cc(Cl)cc1Cl` was tested, and the pIC50 was under 4.00.
For `Nc1c(-c2ccc(F)cc2)c(-c2ccncc2)nn1-c1ccc(C(F)(F)F)cc1`, the pIC50 was 5.17.
With `Nc1c(-c2ccc(F)cc2)c(-c2ccncc2)nn1-c1ccc(Cl)cc1` the pIC50 was 4.64.
`Nc1c(-c2ccc(F)cc2)c(-c2ccncc2)nn1-c1ccc([N+](=O)[O-])cc1` was tested, and the pIC50 was 4.09.
`Nc1c(-c2ccc(F)cc2)c(-c2ccncc2)nn1-c1c(Cl)cc(Cl)cc1Cl` showed a pIC50 of 6.40.
`Fc1ccc(-c2cn(-c3c(Cl)cc(Cl)cc3Cl)nc2-c2ccncc2)cc1` showed a pIC50 of 5.70.
For `Cc1ccc(-n2nc(-c3ccncc3)c(-c3ccc(F)cc3)c2N)cc1`, the pIC50 was 4.28.
In the case of `CCOC(=O)c1c(-c2ccncc2)nn(-c2c(Cl)cc(Cl)cc2Cl)c1N`, the pIC50 was under 4.00.
`N#Cc1ccc(-n2nc(-c3ccncc3)c(-c3ccc(F)cc3)c2N)cc1` showed a pIC50 of under 4.00.

Each molecule was assayed against Mitogen-activated protein kinase 14 (Homo sapiens) (UniProt Q16539) (assay: Inhibition of p38alpha MAP kinase).
Sequence of Mitogen-activated protein kinase 14 (Homo sapiens) (Q16539 whole entry): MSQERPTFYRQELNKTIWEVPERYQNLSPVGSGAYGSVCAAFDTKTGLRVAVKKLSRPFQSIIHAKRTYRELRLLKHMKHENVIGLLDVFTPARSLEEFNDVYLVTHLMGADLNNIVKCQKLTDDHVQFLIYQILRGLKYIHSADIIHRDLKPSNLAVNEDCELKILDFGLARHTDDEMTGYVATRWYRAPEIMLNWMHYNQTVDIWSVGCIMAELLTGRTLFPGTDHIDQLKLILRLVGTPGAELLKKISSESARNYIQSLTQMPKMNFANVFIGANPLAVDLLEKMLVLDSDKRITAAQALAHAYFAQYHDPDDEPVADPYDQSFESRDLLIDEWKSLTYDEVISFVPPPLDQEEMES
`Nc1cc(-c2ccncc2)nn1-c1c(Cl)cc(Cl)cc1Cl` was tested, and the inhibition was “inactive”.
In the case of `Nc1c(C(=O)O)c(-c2ccncc2)nn1-c1c(Cl)cc(Cl)cc1Cl`, the inhibition was “inactive”.
For `Fc1ccc(-c2cn(-c3ccc(C(F)(F)F)cc3)nc2-c2ccncc2)cc1`, the inhibition was “inactive”.
With `Nc1c(-c2ccc(F)cc2)c(-c2ccncc2)nn1-c1ccc(C(F)(F)F)cc1` the inhibition was “inactive”.
In the case of `COc1ccc(-n2nc(-c3ccncc3)c(-c3ccc(F)cc3)c2N)cc1`, the inhibition was “inactive”.
With `Nc1c(-c2ccc(F)cc2)c(-c2ccncc2)nn1-c1ccc(Cl)cc1` the inhibition was “inactive”.
With `Nc1c(-c2ccc(F)cc2)c(-c2ccncc2)nn1-c1ccc([N+](=O)[O-])cc1` the inhibition was “inactive”.
For `Nc1c(-c2ccc(F)cc2)c(-c2ccncc2)nn1-c1c(Cl)cc(Cl)cc1Cl`, the inhibition was “inactive”.
`Nc1c(-c2ccc(F)cc2)c(-c2ccncc2)nn1-c1ccccc1` was tested, and the inhibition was “inactive”.
`Fc1ccc(-c2cn(-c3c(Cl)cc(Cl)cc3Cl)nc2-c2ccncc2)cc1` was tested, and the inhibition was “inactive”.
`NC(=O)c1c(-c2ccncc2)nn(-c2ccccc2)c1N` was tested, and the inhibition was “inactive”.
In the case of `Cc1ccc(-n2nc(-c3ccncc3)c(-c3ccc(F)cc3)c2N)cc1`, the inhibition was “inactive”.
In the case of `CCOC(=O)c1c(-c2ccncc2)nn(-c2c(Cl)cc(Cl)cc2Cl)c1N`, the inhibition was “inactive”.
With `N#Cc1ccc(-n2nc(-c3ccncc3)c(-c3ccc(F)cc3)c2N)cc1` the inhibition was “inactive”.
For `NC(=O)c1c(-c2ccncc2)nn(-c2c(Cl)cc(Cl)cc2Cl)c1N`, the inhibition was “inactive”.
